Experimental data taken from US9056876B2, “Substituted 1H-pyrazolo[3′,4′,4,5]thieno[2,3-b]pyridin-3-amine analogs as positive allosteric modulators of the muscarinic acetylcholine receptor M4” (VANDERBILT UNIVERSITY, priority 2011, dated 2015).

How the values were obtained:
[1] = in vivo; cited from earlier work
[2] = system: Alzheimer's disease patients; settings: cited from earlier work
animal models = settings: cited from earlier work
mAChR M4 = target: T1, mAChR M4 (UniProt P08173); assay: mAChR M4 cell-based functional assay (calcium mobilization, Fluo-4, FDSS); settings: for Emax (%)*: % ACh maximum at 30 μM; for pEC50: positive allosteric modulator activity, EC20 acetylcholine response; for pEC50 / EC50: CHO-K1 cells; for EC50: positive allosteric modulator activity: concentration-dependent increase in the EC20 acetylcholine response, >10 μM estimated for low potency (no plateau)
T1 construct: hM1 and hM4 cDNAs were purchased from Missouri S&T cDNA Resource
T1 sequence (P08173 1-479): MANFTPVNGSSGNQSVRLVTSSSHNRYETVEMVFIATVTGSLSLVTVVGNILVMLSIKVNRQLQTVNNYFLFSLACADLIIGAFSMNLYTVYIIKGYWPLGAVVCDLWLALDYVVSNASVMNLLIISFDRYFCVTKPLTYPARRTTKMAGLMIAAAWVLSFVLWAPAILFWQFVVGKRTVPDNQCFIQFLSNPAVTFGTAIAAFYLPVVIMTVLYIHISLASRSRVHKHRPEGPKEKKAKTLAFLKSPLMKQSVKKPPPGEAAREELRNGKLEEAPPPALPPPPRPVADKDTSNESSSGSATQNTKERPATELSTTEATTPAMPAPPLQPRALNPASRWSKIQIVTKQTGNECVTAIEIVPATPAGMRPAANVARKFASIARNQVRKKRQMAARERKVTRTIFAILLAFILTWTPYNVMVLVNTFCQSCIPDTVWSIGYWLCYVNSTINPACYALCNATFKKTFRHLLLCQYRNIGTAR
Outline: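 Compound responses (11-point, 1:3 series) were followed as calcium fluorescence ratio on FDSS in Gqi5-coupled M4 CHO-K1 cells (human or rat) loaded with Fluo-4. Acetylcholine followed at EC20 (144 s) then EC80 (230 s). EC50/Emax from four-parameter logistic fits of direct, EC20-potentiating or EC80-inhibiting effects.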

| Structure (SMILES) | elevated liver transaminases, share of patients [1] | psychotic behavioral symptoms (delusions, suspiciousness, vocal outbursts, hallucinations) [2] | catalepsy (animal models; in vivo) | activity in animal models (animal models; profiles similar to known antipsychotic drugs) | Emax (%)* (mAChR M4) | pEC50 (mAChR M4) | EC50 (mAChR M4) |
| --- | --- | --- | --- | --- | --- | --- | --- |
| Nc1c2c(nc3ccccc13)CCCC2 [tacrine] | about 30% | – | – | – | – | – | – |
| CCCCCCOc1nsnc1C1=CCCN(C)C1 [xanomeline] | – | reduce psychotic behavioral symptoms | without causing catalepsy | active in animal models | – | – | – |
| Cc1cc(C)c2c(n1)sc1c(NCc3ccc(C)o3)nn(C)c12 [Compound 78, 1,6,8-trimethyl-N-((5-methylfuran-2-yl)methyl)-1H-pyrazolo[3′,4′:4,5]thieno[2,3-b]pyridin-3-amine] | – | – | – | – | 84% | 7.05 | 0.09 µM |
| Cc1ccc2c(n1)sc1c(NCCC(C)C)nn(C)c12 [Compound 54, N-isopentyl-1,6-dimethyl-1H-pyrazolo[3′,4′:4,5]thieno[2,3-b]pyridin-3-amine] | – | – | – | – | 71% | 6.06 | 0.88 µM |
| Cc1nc2sc3c(NCc4ccc(F)c(F)c4)n[nH]c3c2c(C)c1Cl [Compound 146, 7-chloro-N-(3,4-difluorobenzyl)-6,8-dimethyl-1H-pyrazolo[3′,4′:4,5]thieno[2,3-b]pyridin-3-amine] | – | – | – | – | – | <5.00 | > 10 µM |
| Cc1cc(C)c2c(n1)sc1c(NC(=O)C3CCCCC3)nn(C)c12 [Compound 153, N-(1,6,8-trimethyl-1H-pyrazolo[3′,4′:4,5]thieno[2,3-b]pyridin-3-yl)cyclohexanecarboxamide] | – | – | – | – | – | <5.00 | > 10 µM |
| Cc1cc(C)c2c(n1)sc1c(NC3CCSC3)nn(CCO)c12 (centres unmarked) [Compound 109, 2-(6,8-dimethyl-3-((tetrahydrothiophen-3-yl)amino)-1H-pyrazolo[3′,4′:4,5]thieno[2,3-b]pyridin-1-yl)ethanol] | – | – | – | – | 68% | 6.70 | 0.2 µM |
| Cc1cc(C)c2c(n1)sc1c(NC3CCN(C)C3)nn(C)c12 (centres unmarked) [Compound 105, ,6,8-trimethyl-N-(1-methylpyrrolidin-3-yl)-1H-pyrazolo[3′,4′:4,5]thieno[2,3-b]pyridin-3-amine] | – | – | – | – | 35% | <5.00 | > 10 µM |
| Cc1cc(C)c2c(n1)sc1c(NC(C)CS(C)(=O)=O)nn(C)c12 (centres unmarked) [Compound 164, 1,6,8-trimethyl-N-(1-(methylsulfonyl)propan-2-yl)-1H-pyrazolo[3′,4′:4,5]thieno[2,3-b]pyridin-3-amine] | – | – | – | – | – | <5.00 | > 10 µM |
| Cc1cc(C)c2c(n1)sc1c(NCc3ccc(C#N)c(F)c3)nn(C)c12 [Compound 90, 2-fluoro-4-(((1,6,8-trimethyl-1H-pyrazolo[3′,4′:4,5]thieno[2,3-b]pyridin-3-yl)amino)methyl)benzonitrile] | – | – | – | – | 52% | 6.60 | 0.25 µM |
| Cc1cc(C)c2c(n1)sc1c(NC3CCCSC3)nn(CCO)c12 (centres unmarked) [Compound 113, 2-(6,8-dimethyl-3-((tetrahydro-2H-thiopyran-3-yl)amino)-1H-pyrazolo[3′,4′:4,5]thieno[2,3-b]pyridin-1-yl)ethanol] | – | – | – | – | 62% | 6.37 | 0.43 µM |
| CCCCC(=O)Nc1n[nH]c2c1sc1nc(C)cc(C)c12 [Compound 129, N-(6,8-dimethyl-1H-pyrazolo[3′,4′:4,5]thieno[2,3-b]pyridin-3-yl)pentanamide] | – | – | – | – | – | <5.00 | > 10 µM |
| Cc1ccc2c(n1)sc1c(NCc3ccco3)nn(C)c12 [Compound 52, N-(furan-2-ylmethyl)-1,6-dimethyl-1H-pyrazolo[3′,4′:4,5]thieno[2,3-b]pyridin-3-amine] | – | – | – | – | 64% | 5.82 | 1.5 µM |
| Cc1cc(C)c2c(n1)sc1c(NCc3ccc(Cl)o3)nn(C)c12 [Compound 79, N-((5-chlorofuran-2-yl)methyl)-1,6,8-trimethyl-1H-pyrazolo[3′,4′:4,5]thieno[2,3-b]pyridin-3-amine] | – | – | – | – | 80% | 6.51 | 0.31 µM |
| Cc1cc(C)c2c(n1)sc1c(NCc3ccncc3)nn(C)c12 [Compound 42, 1,6,8-trimethyl-N-(pyridin-4-ylmethyl)-1H-pyrazolo[3′,4′:4,5]thieno[2,3-b]pyridin-3-amine] | – | – | – | – | 93% | 6.82 | 0.15 µM |
| COc1ccc(CNc2n[nH]c3c2sc2nc(C)c(Cl)c(C)c23)cc1 [Compound 143, 7-chloro-N-(4-methoxybenzyl)-6,8-dimethyl-1H-pyrazolo[3′,4′:4,5]thieno[2,3-b]pyridin-3-amine] | – | – | – | – | – | <5.00 | > 10 µM |
